Reference: patent US6562785B1, “Method for overcoming bacterial antibiotic resistance” (priority 1999, dated 2003)
Values after ≈ are worked out from the molar mass of the structure shown.

Columns and labels:
[1] = system: Staphylococcus aureus (ATCC 29213) and Micrococcus luteus; assay: Membrane potential by ratio of red to green DiOC2(3) fluorescence, flow cytometry; assay type: cell-based
Experimental: (§1) Flow cytometric studies were performed using a laboratory-built dual laser instrument optimized for bacterial analysis. DiOC2(3) was excited at 488 nm by a beam from an argon ion laser; its green fluorescence was detected through a 530 nm, 20 nm bandwidth bandpass filter, and its red fluorescence was detected through a 610 nm, 19 nm bandpass filter. TO-PRO-3™ was excited at 633 nm by a beam from a helium-neon laser, and its fluorescence was detected through a 695 nm long pass filter. Light scattered at small angles to the 488 nm beam (forward scatter) was used as the trigger signal. Sheath flow rate was 10 ml/min; sample analysis rate was kept below 1,000 events/second. The signal pulse amplitudes were captured by high-precision peak detectors, and digitized using an Analogic HSDAS-16 16-bit data acquisition system in a Pentium-class personal computer. Software was used to perform logarithmic conversion on all of the parameters, which were represented on a 256-channel, 4-decade logarithmic scale.
(§2) Staphylococcus aureus (ATCC 29213) and Micrococcus luteus were grown overnight in trypticase soy broth. Stock solutions of antibiotics were made according to Anhalt & Washington (1991)(Balows, A. et al, (eds) American Society for Microbiology, Washington, 1991, pp. 1199-200). Antibiotics were diluted to the appropriate concentration in 1 ml of Mueller-Hinton broth (Gibco, Gaithersburg, Md.), and filtered though a 0.22 μm filter (Gelman Sciences, Ann Arbor, Mich.). MIC was defined as the minimum concentration of antibiotic that caused no growth after 24 hours in Mueller-Hinton broth.
(§3) Bacteria were added to an antibiotic solution at a concentration of 5.5×10^5/ml and incubated for the appropriate amount of time at 37 degrees C. while shaking. At each time point, a […] aliquot was removed and 30 μM DiOC2(3) and 100 nM TO-PRO-3™ were added simultaneously. The bacteria were allowed to incubate with the dye for 4 minutes prior to flow cytometric analysis. A second […] aliquot was treated identically, except that CCCP (final concentration 15 μM) was added to electrically depolarize the bacteria (i.e., to reduce membrane potential to zero).
(§4) Membrane potential was determined as a ratio of red to green DiOC2(3) fluorescence, providing a cell size-independent measure of MP. To measure membrane permeability, 100 nM TO-PRO-3™ was used in conjunction with the MP dye, DiOC2(3). […] Cells killed by heat exposure (100 degrees C. for 10 minutes) were used as positive controls for TO-PRO-3™ staining.

[2] = system: Staphylococcus aureus (ATCC 29213) and Micrococcus luteus; assay: Membrane permeability by TO-PRO-3 staining, flow cytometry; assay type: cell-based; settings: for bacteria stained by TO-PRO-3: 4 hours exposure to 4 μg/ml
Experimental: as §1, §2, §3, §4
Effects of amoxicillin (MIC 2 μg/ml) were strongly concentration-dependent. […] Changes in permeability could be observed 45 minutes after antibiotic addition; however, the variance of the TO-PRO-3™ fluorescence distribution was quite large, due primarily to the large variance in size resulting from drug administration. The raw TO-PRO-3™ fluorescence data was corrected for size variation by calculating a quantity proportional to the logarithm of the ratio of TO-PRO-3™ fluorescence to green DiOC2(3) fluorescence, which is known to be proportional to size; the logarithm of green fluorescence was subtracted from the logarithm of TO-PRO-3™ fluorescence, and a constant was added to keep the values on scale. This allowed cells which had become permeable to TO-PRO-3™ to be visualized as a discrete population. Thus, when the size of the bacteria is altered by the permeabilizing agent, such as β-lactam antibiotics used at concentrations below MIC, correction for change in cell volume is important in making permeability measurements. […] Resumption of bacterial growth was coincident with this reversion to a TO-PRO-3™-impermeable state, which occurred after 3 hours in the presence of 0.25 μg/ml amoxicillin and after 4 hours in the presence of 0.5 μg/ml.

[3] = system: Staphylococcus aureus (ATCC 29213) and Micrococcus luteus; assay: MIC: minimum antibiotic concentration causing no growth after 24 hours in Mueller-Hinton broth; assay type: cell-based; settings: ATCC29213
Experimental: as §2, with “Anhalt” left out

[4] = system: Staphylococcus aureus (ATCC 29213) and Micrococcus luteus; assay: Bacterial growth and size (bead-referenced counts, forward scatter, microscopy); assay type: cell-based
Experimental: as §2
Bacteria were added to an antibiotic solution at a concentration of 5.5×10^5/ml and incubated for the appropriate amount of time at 37 degrees C. while shaking. […]
Bacteria were counted by adding […] sky blue beads (Spherotech, Libertyville, Ill.) to the cell suspension at a known concentration, determined by counting on a haemocytometer. […] Beads were diluted 1:100 into the bacterial sample and could be identified and counted based on their intense fluorescence (excitation at 633 nm; emission above 695 nm). The volume of sample analyzed in any given aliquot was calculated from the number of beads measured; dividing the number of bacteria by this volume yielded the concentration of bacteria in the aliquot.

[5] = even at high concentrations; cited from earlier work
gram negative organisms = settings: concentrations up to 10 times MIC; cited from earlier work

## [H]/N=C(/N)N[C@H]1[C@H](O)[C@@H](O)[C@H](O[C@@H]2O[C@@H](C)[C@](O)(C=O)[C@H]2O[C@@H]2O[C@@H](CO)[C@H](O)[C@@H](O)[C@@H]2NC)[C@@H](N/C(N)=N\[H])[C@@H]1O [Streptomycin, streptomycin]
[1]; 5 μg/ml, by 1 hour, remained reduced at 105 minutes and 4 hours
  effect on MP: reduced MP
[1]; organisms preincubated with 1 mg/ml erythromycin for 30 minutes
  effect on MP after erythromycin preincubation: abolished
[2]; 5 μg/ml, 1 hour to 4 hours
  permeability changes: No permeability changes were seen

## CN(C)[C@@H]1C(O)=C(C(N)=O)C(=O)[C@@]2(O)C(O)=C3C(=O)c4c(O)cccc4[C@@](C)(O)[C@H]3C[C@@H]12 [Tetracycline, tetracycline]
[3]
  MIC: 0.25 µg/mL (≈ 0.563 µM)
[1]; 4 μg/ml, after 4 hours
  MP reduced to: −50 mV
[2]
  bacteria stained by TO-PRO-3: 50%

## CC1(C)S[C@@H]2[C@H](NC(=O)[C@H](N)c3ccc(O)cc3)C(=O)N2[C@H]1C(=O)O [amoxicillin]
[3]
  MIC: 2 µg/mL (≈ 5.47 µM)
[1]; concentrations above MIC
  dominant characteristic of treated cells (MP): loss of MP
[2]; 0.25 μg/ml
  time to reversion to TO-PRO-3-impermeable state, coincident with resumption of bacterial growth: 3 h
[2]; 0.5 μg/ml
  time to reversion to TO-PRO-3-impermeable state, coincident with resumption of bacterial growth: 4 h
[2]; 4 μg/ml versus 1 μg/ml
  percentage of cells permeable to TO-PRO-3, 4 μg/ml compared with 1 μg/ml: lower percentages of cells permeable to TO-PRO-3™
[2]; 0.25 or 0.5 μg/ml, after four hours
  membrane integrity after four hours: the majority of the cells regained their membrane integrity
[2]; after 2 hours at either 0.25 or 0.5 μg/ml
  TO-PRO-3 permeable population and its MP: a population that was permeable to TO-PRO-3™, but that maintained a normal MP, was detected
[2]; concentrations below MIC
  time after antibiotic addition at which changes in permeability could be observed: 45 min
[4]; concentrations below MIC, microscopy and forward scatter
  bacterial size: drastically increased in size

## O=C(N[C@H](CO)[C@H](O)c1ccc([N+](=O)[O-])cc1)C(Cl)Cl [chloramphenicol]
[1]; 4 μg/ml, after 4 hours
  changes in MP: no changes
[2]; 4 μg/ml, after 4 hours
  changes in permeability: no changes
[4]; 4 μg/ml
  bacterial growth: completely prevented bacterial growth
[5]
  changes in permeability (Mortimer et al.): does not cause changes in permeability

## CC[C@H]1OC(=O)[C@H](C)[C@@H](O[C@H]2C[C@@](C)(OC)[C@@H](O)[C@H](C)O2)[C@H](C)[C@@H](O[C@@H]2O[C@H](C)C[C@H](N(C)C)[C@H]2O)[C@](C)(O)C[C@@H](C)C(=O)[C@H](C)[C@@H](O)[C@]1(C)O [erythromycin]
[3]
  MIC: 4 µg/mL (≈ 5.45 µM)
[1]; 4 μg/ml, after 4 hours
  MP reduced to: −50 mV
[1]; dependence on concentration and time
  depolarization: concentration- and time-dependent depolarizations
[2]
  bacteria stained by TO-PRO-3: 20%
[2]; concentrations below 1 μg/ml
  permeability changes: did not cause any permeability changes

## gentamicin
Gram negative organisms
  changes in permeability to nucleic acid stains: no
